Literature values as cited in patent publication US20210251944A1, “METHODS FOR TREATING A CANCER RESISTANT TO AT LEAST ONE TYROSINE KINASE INHIBITOR” (Del Mar Pharmaceuticals (BC) Ltd., priority 2012, published 2021).
Read-outs that look alike come from different tables or passages of the source.

Tests used:
[1] = biological target: glycogen synthase kinase-3β (GSK-3β) (Homo sapiens, UniProt P49841); settings: cited from earlier work
[2] = cited from earlier work
CML = settings: cited from earlier work; for rate of incomplete cytogenetic responses to imatinib: CML

glycogen synthase kinase-3β (GSK-3β), sequence (P49841 whole entry, species assumed): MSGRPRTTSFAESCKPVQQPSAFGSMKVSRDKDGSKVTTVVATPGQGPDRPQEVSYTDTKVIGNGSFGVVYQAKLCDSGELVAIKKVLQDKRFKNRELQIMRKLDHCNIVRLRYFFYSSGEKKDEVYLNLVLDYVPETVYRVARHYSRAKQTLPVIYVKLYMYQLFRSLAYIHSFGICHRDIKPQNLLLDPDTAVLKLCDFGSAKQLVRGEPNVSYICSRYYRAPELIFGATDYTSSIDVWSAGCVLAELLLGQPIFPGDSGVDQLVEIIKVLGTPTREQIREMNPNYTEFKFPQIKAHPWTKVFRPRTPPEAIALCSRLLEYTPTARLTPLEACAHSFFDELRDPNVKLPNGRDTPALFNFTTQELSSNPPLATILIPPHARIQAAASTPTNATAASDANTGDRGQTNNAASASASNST

Structure (SMILES): CN1C(=O)/C(=C2/C(=O)Nc3ccccc32)c2ccccc21 [Meisoindigo, meisoindigo]
- concentration for inhibition of glycogen synthase kinase-3β (GSK-3β) [1]: 5 to 50 nM

Structure (SMILES): O[C@H]([C@H](O)[C@@H](O)CBr)[C@H](O)CBr [Dibromodulcitol, dibromodulcitol]
- absorption by the oral route [2]: rapid and fairly complete

Structure (SMILES): Cc1ccc(NC(=O)c2ccc(CN3CCN(C)CC3)cc2)cc1Nc1nccc(-c2cccnc2)n1 [imatinib]
- rate of incomplete cytogenetic responses to imatinib (CML; individuals in East Asia): ~50%
- rate of incomplete cytogenetic responses to imatinib (CML; individuals in Europe and North America): 26%
- overall odds ratio for resistant disease, patients with the BIM deletion polymorphism compared to those without (CML; chronic phase CML, first-line imatinib 400 mg/day, ELN criteria): 2.94
